Source: US8143288B2, “Inhibitors of HCV replication” (priority 2005, dated 2012)

Tested on: HCV 1b-377-neo replicon cells
Assay: HCV replicon FRET assay
Type: cell-based
Settings: Hepatitis C virus; HCV replicon; read-out: Activity (EC50)

First: O=C(NC1CCCC1)O[C@@H]1C[C@@H](C(=O)Nc2ccc(/C=C/c3ccc(NC(=O)[C@@H]4C[C@@H](O)CN4C(=O)OCc4ccccc4)cc3)cc2)N(C(=O)OCc2ccccc2)C1 [Example 248]
Second: O=C(Nc1ccc(/C=C/c2ccc(NC(=O)[C@@H]3C[C@@H](O)CN3C(=O)OCc3ccccc3)cc2)cc1)[C@@H]1CCCN1C(=O)Cc1ccccc1 [Example 275]
The EC50 of the first is higher: 1000 to 10000 nM for the first, 0.1 to 90 nM for the second. The second is the more potent here.

Compared with CCC(C)NC(=O)O[C@@H]1C[C@@H](C(=O)Nc2ccc(/C=C/c3ccc(NC(=O)[C@@H]4C[C@@H](OC(=O)NC(C)CC)CN4C(=O)OCc4ccccc4)cc3)cc2)N(C(=O)OCc2ccccc2)C1 (stereo partly shown) [Example 249], CC(C)(C)O[C@@H]1C[C@@H](C(=O)Nc2ccc(/C=C/c3ccc(NC(=O)[C@@H]4C[C@@H](OC(C)(C)C)CN4C(=O)OCc4ccccc4)cc3)cc2)N(C(=O)OCc2ccccc2)C1 [Example 294] is lower in EC50: 1000 to 10000 nM for the first, 100 to 1000 nM for the second. The second is the more potent here.

Compared with Nc1ccc(/C=C/c2ccc(NC(=O)[C@@H]3CCCN3C(=O)Cc3ccccc3)cc2)cc1 [Example 250A], O=C(Nc1ccc(/C=C/c2ccc(NC(=O)[C@@H]3CCCN3C(=O)Cc3ccccc3)cc2)cc1)C1CC1 [Example 292] is lower in EC50: 1000 to 10000 nM for the first, 100 to 1000 nM for the second.

O=C(Nc1ccc(/C=C/c2ccc(NS(=O)(=O)Cc3ccccc3)cc2)cc1)[C@@H]1CCCN1C(=O)Cc1ccccc1 [Example 250B] and O=C(Cc1ccccc1)Nc1ccc(/C=C/c2ccc(NC(=O)[C@@H]3CCCN3C(=O)Cc3ccccc3)cc2)cc1 [Example 254] fall in the same range of EC50: 100 to 1000 nM for the first, 100 to 1000 nM for the second.

First: O=C(NCc1ccccc1)Nc1ccc(/C=C/c2ccc(NC(=O)[C@@H]3CCCN3C(=O)Cc3ccccc3)cc2)cc1 [Example 250C]
Second: O=C(Nc1ccc(/C=C/c2ccc(NC(=O)[C@@H]3CCCN3C(=O)Cc3ccccc3)cc2)cc1)c1ccccc1 [Example 264]
The EC50 of the first is higher: 1000 to 10000 nM for the first, 0.1 to 90 nM for the second.

CC(=O)N1CCCC1C(=O)Nc1ccc(/C=C/c2ccc(NC(=O)[C@@H]3CCCN3C(=O)Cc3ccccc3)cc2)cc1 (stereo partly shown) [Example 251] and CC(=O)N1CCC[C@H]1C(=O)Nc1ccc(/C=C/c2ccc(NC(=O)[C@@H]3CCCN3C(=O)Cc3ccccc3)cc2)cc1 [Example 258] fall in the same range of EC50: 0.1 to 90 nM for the first, 0.1 to 90 nM for the second.

First: O=C(Nc1ccc(/C=C/c2ccc(NC(=O)[C@@H]3CCCN3C(=O)Cc3ccccc3)cc2)cc1)[C@@H]1CCCN1 [Example 252]
Second: O=C(Nc1ccc(/C=C/c2ccc(NC(=O)[C@@H]3CCCN3C(=O)OCc3ccccc3)cc2)cc1)C1CC1 [Example 293]
The EC50 of the first is higher: 1000 to 10000 nM for the first, 100 to 1000 nM for the second.

O=C(Nc1ccc(/C=C/c2ccc(NC(=O)[C@@H]3CCCN3C(=O)Cc3ccccc3)cc2)cc1)[C@H]1CCCN1C(=O)Cc1ccccc1 [Example 255] and O=C(Cc1ccccc1)NCC(=O)Nc1ccc(/C=C/c2ccc(NC(=O)[C@@H]3CCCN3C(=O)Cc3ccccc3)cc2)cc1 [Example 257] fall in the same range of EC50: 100 to 1000 nM for the first, 100 to 1000 nM for the second.

Compared with CC(=O)N[C@@H](C)C(=O)Nc1ccc(/C=C/c2ccc(NC(=O)[C@@H]3CCCN3C(=O)Cc3ccccc3)cc2)cc1 [Example 256], C[C@H](NC(=O)Cc1ccccc1)C(=O)Nc1ccc(/C=C/c2ccc(NC(=O)[C@@H]3CCCN3C(=O)Cc3ccccc3)cc2)cc1 [Example 271] is lower in EC50: 100 to 1000 nM for the first, 0.1 to 90 nM for the second. The second is the more potent here.

Compared with CC(C)(C)O[C@@H]1C[C@@H](C(=O)Nc2ccc(/C=C/c3ccc(NC(=O)C4CC4)cc3)cc2)N(C(=O)OCc2ccccc2)C1 [Example 259], CC(C)(C)O[C@@H]1C[C@@H](C(=O)Nc2ccc(/C=C/c3ccc(NC(=O)[C@@H]4CCCN4C(=O)Cc4ccccc4)cc3)cc2)N(C(=O)OCc2ccccc2)C1 [Example 274] is lower in EC50: 100 to 1000 nM for the first, 0.1 to 90 nM for the second.

O=C(Nc1ccc(/C=C/c2ccc(NC(=O)[C@@H]3CCCN3C(=O)[C@H]3CCCO3)cc2)cc1)C1CC1 [Example 260] and O=C(Nc1ccc(/C=C/c2ccc(NC(=O)[C@@H]3CCCN3C(=O)[C@H]3CCCO3)cc2)cc1)C1CCC1 [Example 262] fall in the same range of EC50: 100 to 1000 nM for the first, 100 to 1000 nM for the second.

O=C(CC1CC1)Nc1ccc(/C=C/c2ccc(NC(=O)[C@@H]3CCCN3C(=O)[C@H]3CCCO3)cc2)cc1 [Example 261] and O=C(Nc1ccc(/C=C/c2ccc(NC(=O)[C@@H]3CCCN3C(=O)[C@H]3CCCO3)cc2)cc1)[C@H]1CCCO1 [Example 263] fall in the same range of EC50: 1000 to 10000 nM for the first, 1000 to 10000 nM for the second.

Compared with CCc1ccccc1C(=O)Nc1ccc(/C=C/c2ccc(NC(=O)[C@@H]3CCCN3C(=O)Cc3ccccc3)cc2)cc1 [Example 265], O=C(Nc1ccc(/C=C/c2ccc(NC(=O)[C@@H]3CCCN3C(=O)Cc3ccccc3)cc2)cc1)c1ccccc1Oc1ccccc1 [Example 266] is higher in EC50: 100 to 1000 nM for the first, 1000 to 10000 nM for the second.

First: O=C(Nc1ccc(/C=C/c2ccc(NC(=O)[C@@H]3CCCN3C(=O)Cc3ccccc3)cc2)cc1)c1ccccc1NCc1ccccc1 [Example 267]
Second: O=C(Nc1ccc(/C=C/c2ccc(NC(=O)[C@@H]3CCCN3C(=O)Cc3ccccc3)cc2)cc1)c1ccccc1OCc1ccccc1 [Example 268]
The EC50 of the first is lower: 100 to 1000 nM for the first, 1000 to 10000 nM for the second.

First: O=C(Cc1cccnc1)Nc1ccc(/C=C/c2ccc(NC(=O)[C@@H]3CCCN3C(=O)Cc3cccnc3)cc2)cc1 [Example 270]
Second: CC(=O)N1C[C@H](O)C[C@H]1C(=O)Nc1ccc(/C=C/c2ccc(NC(=O)[C@@H]3CCCN3C(=O)Cc3ccccc3)cc2)cc1 [Example 272]
The EC50 of the first is lower: 0.1 to 90 nM for the first, 100 to 1000 nM for the second. The first is the more potent here.

First: NCCCCC(N)C(=O)N1CCC[C@H]1C(=O)Nc1ccc(/C=C/c2ccc(NC(=O)[C@@H]3CCCN3C(=O)Cc3ccccc3)cc2)cc1 (stereo partly shown) [Example 273]
Second: O=C(Nc1ccc(/C=C/c2ccc(NC(=O)[C@@H]3CCCN3C(=O)[C@H](O)c3ccccc3)cc2)cc1)[C@@H]1CCCN1C(=O)[C@H](O)c1ccccc1 [Example 298]
The EC50 of the first is higher: 1000 to 10000 nM for the first, 0.1 to 90 nM for the second.

O=C(Nc1ccc(/C=C/c2ccc(NC(=O)[C@@H]3CCCN3C(=O)Cc3ccccc3)c(F)c2)cc1F)[C@@H]1CCCN1C(=O)Cc1ccccc1 [Example 276] and Cc1cc(/C=C/c2ccc(NC(=O)[C@@H]3CCCN3C(=O)Cc3ccccc3)c(C)c2)ccc1NC(=O)[C@@H]1CCCN1C(=O)Cc1ccccc1 [Example 277] fall in the same range of EC50: 0.1 to 90 nM for the first, 0.1 to 90 nM for the second.

CCc1cc(Br)ccc1S(=O)(=O)N1CCC[C@H]1C(=O)Nc1ccc(/C=C/c2ccc(NC(=O)[C@@H]3CCCN3S(=O)(=O)c3ccc(Br)cc3CC)cc2)cc1 [Example 278] and Cc1ccccc1S(=O)(=O)N1CCC[C@H]1C(=O)Nc1ccc(/C=C/c2ccc(NC(=O)[C@@H]3CCCN3S(=O)(=O)c3ccccc3C)cc2)cc1 [Example 282] fall in the same range of EC50: 1000 to 10000 nM for the first, 1000 to 10000 nM for the second.

First: Cc1cc(C)c(S(=O)(=O)N2CCC[C@H]2C(=O)Nc2ccc(/C=C/c3ccc(NC(=O)[C@@H]4CCCN4S(=O)(=O)c4c(C)cc(C)cc4C)cc3)cc2)c(C)c1 [Example 279]
Second: O=C(Nc1ccc(/C=C/c2ccc(NC(=O)[C@@H]3CCCN3S(=O)(=O)c3ccccc3OC(F)(F)F)cc2)cc1)[C@@H]1CCCN1S(=O)(=O)c1ccccc1OC(F)(F)F [Example 280]
The EC50 of the first is lower: 100 to 1000 nM for the first, 1000 to 10000 nM for the second.

First: O=C(Nc1ccc(/C=C/c2ccc(NC(=O)[C@@H]3CCCN3S(=O)(=O)Cc3cccc(C(F)(F)F)c3)cc2)cc1)[C@@H]1CCCN1S(=O)(=O)Cc1cccc(C(F)(F)F)c1 [Example 283]
Second: C[C@@](O)(C(=O)N1CCC[C@H]1C(=O)Nc1ccc(/C=C/c2ccc(NC(=O)[C@@H]3CCCN3C(=O)[C@@](C)(O)c3ccccc3)cc2)cc1)c1ccccc1 [Example 299]
The EC50 of the first is higher: 1000 to 10000 nM for the first, 0.1 to 90 nM for the second.

CC(C)N(C(=O)N1CCCC1C(=O)Nc1ccc(/C=C/c2ccc(NC(=O)C3CCCN3C(=O)N(C(C)C)C(C)C)cc2)cc1)C(C)C (stereo not shown) [Example 284] and CC(C)N(C(=O)N1CCC[C@H]1C(=O)Nc1ccc(/C=C/c2ccc(NC(=O)[C@@H]3CCCN3C(=O)N(C(C)C)C(C)C)cc2)cc1)C(C)C [Example 290] fall in the same range of EC50: 0.1 to 90 nM for the first, 0.1 to 90 nM for the second.

CC(C)NC(=O)N1CCC[C@H]1C(=O)Nc1ccc(/C=C/c2ccc(NC(=O)[C@@H]3CCCN3C(=O)NC(C)C)cc2)cc1 [Example 285] and CN(C)C(=O)N1CCC[C@H]1C(=O)Nc1ccc(/C=C/c2ccc(NC(=O)[C@@H]3CCCN3C(=O)N(C)C)cc2)cc1 [Example 288] fall in the same range of EC50: 100 to 1000 nM for the first, 100 to 1000 nM for the second.

First: O=C(Nc1ccc(/C=C/c2ccc(NC(=O)[C@@H]3CCCN3C(=O)N3CCCC3)cc2)cc1)[C@@H]1CCCN1C(=O)N1CCCC1 [Example 286]
Second: O=C(Nc1ccc(/C=C/c2ccc(NC(=O)[C@@H]3CCCN3C(=O)N3CCOCC3)cc2)cc1)[C@@H]1CCCN1C(=O)N1CCOCC1 [Example 287]
The EC50 of the first is higher: 100 to 1000 nM for the first, 0.1 to 90 nM for the second. The second is the more potent here.

CCN(CC)C(=O)N1CCC[C@H]1C(=O)Nc1ccc(/C=C/c2ccc(NC(=O)[C@@H]3CCCN3C(=O)N(CC)CC)cc2)cc1 [Example 289] and CN(C)[C@@H](C(=O)N1CCC[C@H]1C(=O)Nc1ccc(/C=C/c2ccc(NC(=O)[C@@H]3CCCN3C(=O)[C@@H](c3ccccc3)N(C)C)cc2)cc1)c1ccccc1 [Example 296] fall in the same range of EC50: 0.1 to 90 nM for the first, 0.1 to 90 nM for the second.

First: O=C(Cc1ccccc1)C1C[C@H](O)C[C@H]1C(=O)Nc1ccc(/C=C/c2ccc(NC(=O)[C@@H]3C[C@@H](O)CN3C(=O)Cc3ccccc3)cc2)cc1 (stereo partly shown) [Example 291]
Second: CC(C)(C)O[C@@H]1C[C@@H](C(=O)Nc2ccc(/C=C/c3ccc(NC(=O)[C@@H]4C[C@@H](OC(C)(C)C)CN4C(=O)Cc4ccccc4)cc3)cc2)N(C(=O)Cc2ccccc2)C1 [Example 295]
The EC50 of the first is lower: 0.1 to 90 nM for the first, 1000 to 10000 nM for the second. The first is the more potent here.

CN(C)c1cc(C(=O)N2CCC[C@H]2C(=O)Nc2ccc(/C=C/c3ccc(NC(=O)[C@@H]4CCCN4C(=O)c4cc(N(C)C)c5ccccc5n4)cc3)cc2)nc2ccccc12 [Example 297] and O=C(Nc1ccc(/C=C/c2ccc(NC(=O)[C@@H]3CCCN3C(=O)c3nccc4ccccc34)cc2)cc1)[C@@H]1CCCN1C(=O)c1nccc2ccccc12 [Example 300] fall in the same range of EC50: 0.1 to 90 nM for the first, 0.1 to 90 nM for the second.
